Literature values as cited in PMC6606825 (Journal of Ginseng Research, 2018).

Test system: P-gp
Conditions: in vitro and in situ; cited from earlier work

| Compound | P-gp inhibition |
| --- | --- |
| CC(C)=CCC[C@](C)(O)[C@H]1CC[C@]2(C)[C@@H]1[C@H](O)C[C@@H]1[C@@]3(C)CC[C@H](O)C(C)(C)[C@@H]3CC[C@]12C [20(S)-PPD, 20(S)-protopanaxadiol] | inhibit P-gp |
| CC(C)=CCC[C@](C)(O[C@@H]1O[C@H](CO)[C@@H](O)[C@H](O)[C@H]1O)[C@H]1CC[C@]2(C)[C@@H]1[C@H](O)C[C@@H]1[C@@]3(C)CC[C@H](O)C(C)(C)[C@@H]3CC[C@]12C [Ginsenoside compound K, 20-O-beta-D-glucopyranosyl-20(S)-protopanaxadiol] | inhibit P-gp |
